From patent publication US8951963B2, “Active cores of peptide triazole HIV-1 entry inhibitors” (priority 2009, dated 2015)
*1 amine or outer side, *2 acyl side, *3 side chain or, on linkers, in order; H or OH if unused. Where a SMILES comes first, the peptide text is derived from it. [ ]: non-standard residue; d: D form. X1 = O=C([C@@H]1C[C@H](n2cc([C]34[CH]5[CH]6[CH]7[CH]3[Fe]6754389%10[CH]4[CH]3[CH]8[CH]9[CH]4%10)nn2)CN1[*:1])[*:2]; Cit = NC(=O)NCCC[C@H](N)C(=O)O

Legend:
HIV-1 YU2 gp120 = biological target: T1, HIV-1 YU2 gp120 (Human immunodeficiency virus type 1 group M subtype B, UniProt P35961); assay type: binding; conditions: for dissociation rate constant (koff): Table 11, dissociation rate; for Ka: Table 11, association rate
T1 construct: made in house; host or cells: Drosophila S2 cells
Description: Surface plasmon resonance (SPR) interaction analyses were performed on a Biacore® 3000 optical biosensor (GE). All experiments were carried out at 25° C. using standard PBS, pH 7.4, with 0.005% Surfactant P20.
Regeneration of the surface was achieved by a one 5-second pulse of 10 mM glycine, pH 1.5.
SPR data analyses were performed using BIAEvaluation 4.0 software (GE). […] Experimental data were fitted to a simple 1:1 binding model with a parameter included for mass transport. […] The inhibition curve was converted into a calibration curve by the use of a fitting function. The fitting was done using the 4-parameter equation in BIAevaluation software: […]

gp120 = biological target: T2, gp120 (Human immunodeficiency virus type 1 group M subtype B, UniProt P35961); assay type: binding, HIV-1; conditions: ITC, 25° C., PBS pH 7.4
T2 construct: made in house; host or cells: Drosophila S2 cells
Description: FIGS. 14A-14D are a series of graphs of calorimetric titration data of gp120 with various peptides. […] Data was obtained as 25° C. in PBS, pH 7.4. Experiments in FIGS. 14A and 14B were carried out using a VP-ITC, where 2 μM gp120 in the calorimetric cell (˜1.4 mL) was titrated with 10 μL aliquots of peptide at concentration of 30 μM.
Isothermal titration calorimetric experiments were performed using high-precision calorimetric systems of model VP-ITC or ITC20 from MicroCal Inc. The titrations were performed by stepwise addition of peptide to gp120 contained in the calorimetric cell at a constant temperature of 25° C. […] For the experiments carried out in the VP-ITC the concentration of gp120 was about 2 μM and the syringe contained the peptide at a concentration about 30 μM. For the experiment carried out using ITC20 gp120 was prepared at about 4 μM and the peptide at 50-100 μM. The solutions contained within the calorimetric cells and injector syringes were prepared in PBS, pH 7.4 and thoroughly degassed to avoid bubble formation in the calorimetric cell. The heat evolved upon each injection of the peptide solution was obtained from the integral of the calorimetric signal. The heat associated with binding of a ligand to the protein in the cell was obtained by subtracting the heat of dilution from the heat of reaction.

CC[C@H](C)[C@H](NC(=O)[C@H](CC(N)=O)NC(=O)[C@@H](N)CCCNC(=N)N)C(=O)N1C[C@@H](n2cc([C]34[CH]5[CH]6[CH]7[CH]3[Fe]6754389%10[CH]4[CH]3[CH]8[CH]9[CH]4%10)nn2)C[C@H]1C(=O)N[C@@H](Cc1c[nH]c2ccccc12)C(=O)N[C@@H](CO)C(N)=O (some centres unmarked) [UM32] (H-RNI[X1]WS-NH2)
dissociation rate constant (koff) (HIV-1 YU2 gp120): 3.1E−03 ± 1.5 1/S

CC[C@H](C)[C@H](NC(=O)[C@H](CC(N)=O)NC(=O)[C@@H](N)CCCNC(N)=O)C(=O)N1C[C@@H](n2cc([C]34[CH]5[CH]6[CH]7[CH]3[Fe]6754389%10[CH]4[CH]3[CH]8[CH]9[CH]4%10)nn2)C[C@H]1C(=O)N[C@@H](Cc1c[nH]c2ccccc12)C(=O)N[C@@H](CO)C(N)=O (some centres unmarked) [UM34] (H-[Cit]NI[X1]WS-NH2; N-terminus assumed)
Ka (HIV-1 YU2 gp120): Not detectable
dissociation rate constant (koff) (HIV-1 YU2 gp120): Not detectable

CC[C@H](C)[C@H](N)C(=O)N[C@@H](CC(N)=O)C(=O)N[C@@H](CC(N)=O)C(=O)N[C@H](C(=O)N1C[C@@H](n2cc([C]34[CH]5[CH]6[CH]7[CH]3[Fe]6754389%10[CH]4[CH]3[CH]8[CH]9[CH]4%10)nn2)C[C@H]1C(=O)N[C@@H](Cc1c[nH]c2ccccc12)C(N)=O)[C@@H](C)CC (some centres unmarked) [UM15] (H-INNI[X1]W-NH2)
dissociation rate constant (koff) (HIV-1 YU2 gp120): 3.3E−03 ± 0.3 1/S
ΔH (gp120): -16.6 kcal/mol
−TΔS (gp120): +6.6 kcal/mol

CC[C@H](C)[C@H](NC(=O)[C@@H](N)CCCNC(=N)N)C(=O)N[C@@H](CC(N)=O)C(=O)N[C@@H](CC(N)=O)C(=O)N[C@H](C(=O)N1C[C@@H](n2cc([C]34[CH]5[CH]6[CH]7[CH]3[Fe]6754389%10[CH]4[CH]3[CH]8[CH]9[CH]4%10)nn2)C[C@H]1C(N)=O)[C@@H](C)CC (some centres unmarked) [UM16] (H-RINNI[X1]-NH2; N-terminus assumed)
Ka (HIV-1 YU2 gp120): Not detectable
dissociation rate constant (koff) (HIV-1 YU2 gp120): Not detectable

CC[C@H](C)[C@H](NC(=O)[C@H](CC(N)=O)NC(=O)[C@H](CC(N)=O)NC(=O)[C@@H](N)Cc1ccccc1)C(=O)N1C[C@@H](n2cc([C]34[CH]5[CH]6[CH]7[CH]3[Fe]6754389%10[CH]4[CH]3[CH]8[CH]9[CH]4%10)nn2)C[C@H]1C(=O)N[C@@H](Cc1c[nH]c2ccccc12)C(=O)N[C@@H](CO)C(N)=O (some centres unmarked) [UM28] (H-FNNI[X1]WS-NH2)
dissociation rate constant (koff) (HIV-1 YU2 gp120): 4.3E−03 ± 0.8 1/S

CC[C@H](C)[C@H](NC(=O)[C@H](CC(N)=O)NC(=O)[C@@H](N)CCC(=O)O)C(=O)N1C[C@@H](n2cc([C]34[CH]5[CH]6[CH]7[CH]3[Fe]6754389%10[CH]4[CH]3[CH]8[CH]9[CH]4%10)nn2)C[C@H]1C(=O)N[C@@H](Cc1c[nH]c2ccccc12)C(=O)N[C@@H](CO)C(N)=O (some centres unmarked) [UM33] (H-ENI[X1]WS-NH2)
dissociation rate constant (koff) (HIV-1 YU2 gp120): 1.8E−03 ± 0.8 1/S

CC[C@H](C)[C@H](NC(=O)[C@H](CC(N)=O)NC(=O)[C@@H](N)CC(N)=O)C(=O)N1C[C@@H](n2cc([C]34[CH]5[CH]6[CH]7[CH]3[Fe]6754389%10[CH]4[CH]3[CH]8[CH]9[CH]4%10)nn2)C[C@H]1C(=O)N[C@@H](Cc1c[nH]c2ccccc12)C(=O)N[C@@H](CO)C(N)=O (some centres unmarked) [UM31] (H-NNI[X1]WS-NH2)
dissociation rate constant (koff) (HIV-1 YU2 gp120): 7.8E−03 ± 1.1 1/S
ΔH (gp120): -13.8 kcal/mol
−TΔS (gp120): +4.1 kcal/mol

CC[C@H](C)[C@H](NC(=O)[C@H](CC(N)=O)NC(=O)[C@H](CC(N)=O)NC(=O)[C@@H](N)CCCCN)C(=O)N1C[C@@H](n2cc([C]34[CH]5[CH]6[CH]7[CH]3[Fe]6754389%10[CH]4[CH]3[CH]8[CH]9[CH]4%10)nn2)C[C@H]1C(=O)N[C@@H](Cc1c[nH]c2ccccc12)C(=O)N[C@@H](CO)C(N)=O (some centres unmarked) [UM27] (H-KNNI[X1]WS-NH2)
dissociation rate constant (koff) (HIV-1 YU2 gp120): 8.8E−03 ± 2.1 1/S

CC[C@H](C)[C@H](NC(=O)[C@@H](N)CCCNC(=N)N)C(=O)N[C@@H](CC(N)=O)C(=O)N[C@@H](CC(N)=O)C(=O)N[C@H](C(=O)N1C[C@@H](n2cc([C]34[CH]5[CH]6[CH]7[CH]3[Fe]6754389%10[CH]4[CH]3[CH]8[CH]9[CH]4%10)nn2)C[C@H]1C(=O)N[C@@H](Cc1c[nH]c2ccccc12)C(=O)N[C@@H](CO)C(N)=O)[C@@H](C)CC (some centres unmarked) [UM11] (H-RINNI[X1]WS-NH2; N-terminus and C-terminus assumed)
dissociation rate constant (koff) (HIV-1 YU2 gp120): 2.1E−02 ± 0.6 1/S

CC[C@H](C)[C@H](N)C(=O)N[C@@H](CC(N)=O)C(=O)N[C@H](C(=O)N1C[C@@H](n2cc([C]34[CH]5[CH]6[CH]7[CH]3[Fe]6754389%10[CH]4[CH]3[CH]8[CH]9[CH]4%10)nn2)C[C@H]1C(=O)N[C@@H](Cc1c[nH]c2ccccc12)C(=O)N[C@@H](CO)C(N)=O)[C@@H](C)CC (some centres unmarked) [UM35] (H-INI[X1]WS-NH2; N-terminus assumed)
Ka (HIV-1 YU2 gp120): Not detectable
dissociation rate constant (koff) (HIV-1 YU2 gp120): Not detectable

CC[C@H](C)[C@H](NC(=O)[C@H](CC(N)=O)NC(=O)[C@H](CC(N)=O)NC(=O)[C@@H](N)CCC(=O)O)C(=O)N1C[C@@H](n2cc([C]34[CH]5[CH]6[CH]7[CH]3[Fe]6754389%10[CH]4[CH]3[CH]8[CH]9[CH]4%10)nn2)C[C@H]1C(=O)N[C@@H](Cc1c[nH]c2ccccc12)C(=O)N[C@@H](CO)C(N)=O (some centres unmarked) [UM23] (H-ENNI[X1]WS-NH2; N-terminus and C-terminus assumed)
dissociation rate constant (koff) (HIV-1 YU2 gp120): 3.4E−03 ± 0.2 1/S

CC[C@H](C)[C@H](NC(=O)[C@@H](N)CC(N)=O)C(=O)N1C[C@@H](n2cc([C]34[CH]5[CH]6[CH]7[CH]3[Fe]6754389%10[CH]4[CH]3[CH]8[CH]9[CH]4%10)nn2)C[C@H]1C(=O)N[C@@H](Cc1c[nH]c2ccccc12)C(=O)N[C@@H](CO)C(N)=O (some centres unmarked) [UM41] (H-NI[X1]WS-NH2)
Ka (HIV-1 YU2 gp120): Not detectable
dissociation rate constant (koff) (HIV-1 YU2 gp120): Not detectable
ΔH (gp120): -6.1 kcal/mol
−TΔS (gp120): -1.6 kcal/mol

CC[C@H](C)[C@H](N)C(=O)N[C@@H](CC(N)=O)C(=O)N[C@@H](CC(N)=O)C(=O)N[C@H](C(=O)N1C[C@@H](n2cc([C]34[CH]5[CH]6[CH]7[CH]3[Fe]6754389%10[CH]4[CH]3[CH]8[CH]9[CH]4%10)nn2)C[C@H]1C(=O)N[C@@H](Cc1c[nH]c2ccccc12)C(=O)N[C@@H](CO)C(N)=O)[C@@H](C)CC (some centres unmarked) [UM21] (H-INNI[X1]WS-NH2; N-terminus and C-terminus assumed)
dissociation rate constant (koff) (HIV-1 YU2 gp120): 1.4E−03 ± 0.5 1/S

CC[C@H](C)[C@H](NC(=O)[C@H](CC(N)=O)NC(=O)[C@H](CC(N)=O)NC(=O)[C@@H](N)CCCNC(N)=O)C(=O)N1C[C@@H](n2cc([C]34[CH]5[CH]6[CH]7[CH]3[Fe]6754389%10[CH]4[CH]3[CH]8[CH]9[CH]4%10)nn2)C[C@H]1C(=O)N[C@H](Cc1c[nH]c2ccccc12)C(=O)N[C@@H](CO)C(N)=O (some centres unmarked) [UM24-DW] (H-[Cit]NNI[X1][dW]S-NH2; N-terminus assumed)
Ka (HIV-1 YU2 gp120): Not detectable
dissociation rate constant (koff) (HIV-1 YU2 gp120): Not detectable

CC[C@H](C)[C@H](NC(=O)[C@H](CC(N)=O)NC(=O)[C@H](CC(N)=O)NC(=O)[C@@H](N)CCCNC(=N)N)C(=O)N1C[C@@H](n2cc([C]34[CH]5[CH]6[CH]7[CH]3[Fe]6754389%10[CH]4[CH]3[CH]8[CH]9[CH]4%10)nn2)C[C@H]1C(=O)N[C@@H](Cc1c[nH]c2ccccc12)C(=O)N[C@@H](CO)C(N)=O (some centres unmarked) [UM22] (H-RNNI[X1]WS-NH2; N-terminus and C-terminus assumed)
dissociation rate constant (koff) (HIV-1 YU2 gp120): 6.8E−03 ± 0.4 1/S
